According to ChEMBL document CHEMBL4680246, “Design, synthesis and biological evaluation of novel O-carbamoyl ferulamide derivatives as multi-target-directed ligands for the treatment of Alzheimer's disease” (Eur J Med Chem, 2020):
Converted amounts (≈) assume the structure as drawn. The source made the active and inactive calls. The calls are words filed in the database; no cut-off is given here.

Assays:
[1] = Acute toxicity in Kunming mouse assessed as lethargy at 250 to 1000 mg/kg; type: organism-based; conditions: in vivo, dose 250-1000 mg/kg
Homo sapiens [2] = species: Homo sapiens; experiment: Selectivity index, ratio of IC50 for recombinant human MAO-A to IC50 for recombinant human MAO-B
[3] = Effect on tau protein level in mouse HT22 cells transfected with pRK5-GFP-Tau P301L plasmid assessed as fluorescence intensity at 5 uM by fluorescence microscopy (reference value: 33.6); type: functional, HT-22
Homo sapiens [4] = species: Homo sapiens; experiment: Selectivity index, ratio of IC50 for human erythrocytes Ache to IC50 for human serum BuChe
[5] = Toxicity in Zebrafish; set-up: species or system Danio rerio; conditions: in vivo
SH-SY5Y [6] = experiment: Neuroprotective activity against amyloid beta (1 to 42)-induced cytotoxicity in human SH-SY5Y cells assessed as cell viability at 10 uM by MTT assay (reference value: 50.3%); type: functional; conditions: read-out: Activity
Danio rerio [7] = species: Danio rerio; experiment: Antialzheimer activity in AlCl3-induced Zebrafish model of Alzheimer's disease assessed as change in motility speed at 1 ug/ml (reference value: 1.08 mm/s); type: functional; conditions: dose 1 µg/ml
Cholinesterase = Cholinesterase (Homo sapiens, UniProt P06276); experiment: Pseudo-irreversible inhibition of human serum BuChE assessed as residual activity at 0.1 times IC50 using acetylcholine iodide as substrate measured 240 mins post dilution by Ellman's method relative to control
[8] = Toxicity in AlCl3-induced Zebrafish model of Alzheimer's disease assessed as mortality at 25 ug/ml relative to control; set-up: species or system Danio rerio; conditions: in vivo, at 25 µg/mL
Danio rerio [9] = species: Danio rerio; experiment: Antialzheimer activity in AlCl3-induced Zebrafish model of Alzheimer's disease assessed as motility distance at […] (reference value: 5346 mm); type: functional; conditions: dose 0.11 µg/ml
[10] = Cytotoxicity against mouse HT22 cells assessed as cell viability at 20 uM by MTT assay relative to control; type: cell-based, HT-22; conditions: read-out: Activity
Acetylcholinesterase [11] = target: Acetylcholinesterase (Electrophorus electricus, UniProt O42275); experiment: Inhibition of Electrophorus electricus AChE using acetylcholine iodide as substrate incubated for 15 mins by Ellman's method
[12] = Acute toxicity in Kunming mouse assessed as damage in liver at 50 to 1000 mg/kg measured after 7 days; type: organism-based; conditions: in vivo, 168 h, dose 50-1000 mg/kg, time 7 day
Mus musculus [13] = species: Mus musculus; experiment: Improvement in brain cholinergic activity in scopolamine-induced mouse model of amnesia assessed as increase in ChAT vitality; type: functional, organism-based
[14] = Toxicity in Zebrafish assessed as mortality at 12.5 ug/ml relative to control; set-up: species or system Danio rerio; conditions: in vivo, at 12.5 µg/mL
[15] = Toxicity in Zebrafish assessed as small or misshapen jaw at 6.25 ug/ml relative to control; set-up: species or system Danio rerio; conditions: in vivo, at 6.25 µg/mL
Mus musculus [16] = experiment: Improvement in brain cholinergic activity in scopolamine-induced mouse model of amnesia assessed as change in AChE vitality at 6 mg/kg (reference value: 0.105 U/mg); type: functional
[17] = Cytotoxicity against mouse HT22 cells assessed as cell viability at 80 uM by MTT assay relative to control; type: cell-based, HT-22; conditions: read-out: Activity
[18] = Effect on APP protein level in mouse HT22 cells transfected with pEGFP-N1-APP plasmid assessed as fluorescence intensity at 2.5 uM by fluorescence microscopy (reference value: 33.2); type: functional, HT-22
Danio rerio [19] = species: Danio rerio; experiment: Antialzheimer activity in AlCl3-induced Zebrafish model of Alzheimer's disease assessed as change in motility speed at 0.33 ug/ml (reference value: 1.08 mm/s); type: functional; conditions: dose 0.33 µg/ml
Danio rerio [20] = species: Danio rerio; experiment: Protection against amyloid beta (1 to 42)-induced zebrafish model of vascular injury assessed as reduction in injury rate; type: functional, organism-based
Danio rerio [21] = species: Danio rerio; experiment: Protection against amyloid beta (1 to 42)-induced zebrafish model of vascular injury assessed as vascular injury rate at 1 ug/ml (reference value: 73.3%); type: functional; conditions: dose 1 µg/ml
HT-22 = experiment: Down regulation of tau protein expression in mouse HT22 cells transfected with pRK5-GFP-Tau plasmid at 2.5 to 20 uM by Western blot analysis; type: functional, cell-based; conditions: dose 2.5-20 µM
[22] = Toxicity in AlCl3-induced Zebrafish model of Alzheimer's disease assessed as mortality at 1 ug/ml relative to control; set-up: species or system Danio rerio; conditions: in vivo, at 1 µg/mL
Danio rerio [23] = species: Danio rerio; experiment: Antialzheimer activity in AlCl3-induced Zebrafish model of Alzheimer's disease assessed as increase in motility speed at […] relative to control; type: functional; conditions: dose 0.11 µg/ml
[24] = Drug metabolism in human liver microsomes by HPLC analysis; type: ADME, Microsome
Acetylcholinesterase [25] = target: Acetylcholinesterase (Homo sapiens, UniProt P22303); experiment: Inhibition of human erythrocytes AChE using acetylcholine iodide as substrate incubated for 15 mins by Ellman's method
Mus musculus [26] = experiment: Improvement in cognitive impairment in scopolamine-induced mouse model of amnesia assessed as change in spontaneous alteration at 20 mg/kg by Y-maze test (reference value: 40.8%); type: functional
[27] = Toxicity in Zebrafish assessed as absence of blood flow at 6.25 ug/ml relative to control; set-up: species or system Danio rerio; conditions: at 6.25 µg/mL
[28] = Effect on tau protein level in mouse HT22 cells transfected with pRK5-GFP-Tau P301L plasmid assessed as fluorescence intensity at 10 uM by fluorescence microscopy (reference value: 33.6); type: functional, HT-22
[29] = Toxicity in Zebrafish assessed as death at 6.25 ug/ml relative to control; set-up: species or system Danio rerio; conditions: in vivo, at 6.25 µg/mL, read-out: Activity
[30] = Drug metabolism in rat intestinal flora by HPLC analysis; type: ADME, tissue-based, Intestine
[31] = Effect on spontaneous alteration behavior in mouse assessed as change in total arm entry at 5 to 20 mg/kg by Y-maze test; type: ADME, organism-based; conditions: in vivo, dose 5-20 mg/kg
SH-SY5Y [32] = experiment: Cytotoxicity against human SH-SY5Y cells up to 50 uM by MTT assay; type: cell-based
Danio rerio [33] = species: Danio rerio; experiment: Antialzheimer activity in AlCl3-induced Zebrafish model of Alzheimer's disease assessed as increase in motility speed at 0.33 ug/ml relative to control; type: functional; conditions: dose 0.33 µg/ml
[34] = Effect on tau protein level in mouse HT22 cells transfected with pRK5-GFP-Tau plasmid assessed as fluorescence intensity at 20 uM by fluorescence microscopy (Rvb <= 40.9); type: functional, HT-22
Danio rerio [35] = species: Danio rerio; experiment: Protection against amyloid beta (1 to 42)-induced zebrafish model of vascular injury assessed as vascular injury rate at 0.33 ug/ml (reference value: 73.3%); type: functional; conditions: dose 0.33 µg/ml
[36] = Toxicity in Zebrafish assessed as mortality at 25 ug/ml relative to control; set-up: species or system Danio rerio; conditions: in vivo, at 25 µg/mL
[37] = Effect on tau protein level in mouse HT22 cells transfected with pRK5-GFP-Tau plasmid assessed as fluorescence intensity at 5 uM by fluorescence microscopy (Rvb <= 40.9); type: functional, HT-22
SH-SY5Y [38] = experiment: Neuroprotective activity against amyloid beta (1 to 42)-induced cytotoxicity in human SH-SY5Y cells assessed as cell viability at 1 uM by MTT assay (reference value: 50.3%); type: functional; conditions: read-out: Activity

Chain of Acetylcholinesterase (Electrophorus electricus, UniProt O42275) (O42275 whole entry): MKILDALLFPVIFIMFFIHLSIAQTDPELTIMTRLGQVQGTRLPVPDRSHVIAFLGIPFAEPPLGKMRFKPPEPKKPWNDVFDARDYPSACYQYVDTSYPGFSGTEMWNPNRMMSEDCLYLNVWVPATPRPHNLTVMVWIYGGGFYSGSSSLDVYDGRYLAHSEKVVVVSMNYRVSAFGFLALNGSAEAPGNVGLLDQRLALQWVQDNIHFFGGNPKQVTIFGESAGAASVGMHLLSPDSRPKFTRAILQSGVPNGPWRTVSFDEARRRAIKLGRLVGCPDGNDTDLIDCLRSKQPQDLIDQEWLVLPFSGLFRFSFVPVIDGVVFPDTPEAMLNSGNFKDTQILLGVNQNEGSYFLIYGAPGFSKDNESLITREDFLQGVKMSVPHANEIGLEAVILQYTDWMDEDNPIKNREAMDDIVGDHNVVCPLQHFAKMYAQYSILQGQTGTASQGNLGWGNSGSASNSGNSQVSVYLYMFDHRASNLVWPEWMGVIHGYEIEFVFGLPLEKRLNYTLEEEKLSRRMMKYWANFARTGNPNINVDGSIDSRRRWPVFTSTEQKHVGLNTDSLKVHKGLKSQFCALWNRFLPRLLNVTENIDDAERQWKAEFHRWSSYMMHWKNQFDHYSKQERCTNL
Chain of Acetylcholinesterase (Homo sapiens, UniProt P22303) (P22303 whole entry): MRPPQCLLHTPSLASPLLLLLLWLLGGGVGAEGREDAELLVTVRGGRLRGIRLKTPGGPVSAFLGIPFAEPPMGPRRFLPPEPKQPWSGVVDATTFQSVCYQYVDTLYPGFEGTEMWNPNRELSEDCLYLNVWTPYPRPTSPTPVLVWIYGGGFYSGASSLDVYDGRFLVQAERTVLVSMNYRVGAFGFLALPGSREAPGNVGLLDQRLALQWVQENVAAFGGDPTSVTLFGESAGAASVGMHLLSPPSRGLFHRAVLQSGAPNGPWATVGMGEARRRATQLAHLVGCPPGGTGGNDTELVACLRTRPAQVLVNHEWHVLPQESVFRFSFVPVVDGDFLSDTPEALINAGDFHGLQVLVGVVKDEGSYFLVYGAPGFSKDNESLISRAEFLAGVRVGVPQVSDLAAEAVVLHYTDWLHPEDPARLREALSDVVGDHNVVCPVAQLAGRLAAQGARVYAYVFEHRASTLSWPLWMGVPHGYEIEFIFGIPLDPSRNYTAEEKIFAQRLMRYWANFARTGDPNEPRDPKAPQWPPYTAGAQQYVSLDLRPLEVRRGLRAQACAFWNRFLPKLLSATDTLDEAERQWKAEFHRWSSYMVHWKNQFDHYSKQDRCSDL
Chain of Cholinesterase (P06276 whole entry): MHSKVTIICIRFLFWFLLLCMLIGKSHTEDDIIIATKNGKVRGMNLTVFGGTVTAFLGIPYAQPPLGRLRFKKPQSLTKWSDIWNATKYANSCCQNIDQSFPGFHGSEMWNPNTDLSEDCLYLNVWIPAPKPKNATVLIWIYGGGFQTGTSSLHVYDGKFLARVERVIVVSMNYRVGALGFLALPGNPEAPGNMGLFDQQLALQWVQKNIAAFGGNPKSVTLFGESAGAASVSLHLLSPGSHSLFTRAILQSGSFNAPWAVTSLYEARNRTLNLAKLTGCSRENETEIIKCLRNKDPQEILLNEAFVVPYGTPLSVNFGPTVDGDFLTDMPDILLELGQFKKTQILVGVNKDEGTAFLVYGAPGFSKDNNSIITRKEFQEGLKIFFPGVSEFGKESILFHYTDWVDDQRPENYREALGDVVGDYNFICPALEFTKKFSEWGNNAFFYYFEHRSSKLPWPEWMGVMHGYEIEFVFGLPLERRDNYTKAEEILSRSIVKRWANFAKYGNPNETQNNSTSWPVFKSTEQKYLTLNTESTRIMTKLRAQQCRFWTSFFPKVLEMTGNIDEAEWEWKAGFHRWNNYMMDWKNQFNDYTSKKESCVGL

**Q.** Which results are given for `CCN(C)C(=O)Oc1ccc(/C=C/C(=O)N2CCc3ccccc3C2)cc1OC`?
**A.** Activity [1]: Toxic; Ratio IC50 (Homo sapiens [2]): 3; Flu intensity [3]: 23.9; Ratio IC50 (Homo sapiens [4]): 10.9; LC10 [5]: 6.25 µg/mL (≈ 15.8 µM); MNTC ([5]; read-out: MNCC): 3.12 µg/mL; viability at 10 µM (SH-SY5Y [6]): 83.8%; Activity (Danio rerio [7]): 2.15 millimeter/sec; Activity (Cholinesterase): 66.2%; mortality at 25 ug/ml [8]: 100%; Activity (Danio rerio [9]): <=6418 mm; viability at 20 µM [10]: 79.8%; IC50 (Acetylcholinesterase [11]): 11.3 µM; Activity [12]: Non-Toxic; Activity (Mus musculus [13]): Dose-dependent effect; mortality at 12.5 ug/ml [14]: 100%; Activity [15]: 33.3%; Activity (Mus musculus [16]): 0.098 U/mg; viability at 80 µM [17]: 8.4%; Flu intensity [18]: 29.8; Activity (Danio rerio [19]): 2.06 millimeter/sec; Activity (Danio rerio [20]): Dose-dependent effect; Activity (Danio rerio [21]): 53.3%; Activity (HT-22): Active; mortality at 1 ug/ml [22]: 0%; Efficacy (Danio rerio [23]): 57.3%; Drug metabolism [24]: Metabolite_Detected; IC50 (Acetylcholinesterase [25]): 10.6 µM; Activity (Mus musculus [26]): 61.6%; Activity [27]: 16.7%; Flu intensity [28]: 18.7; mortality at 6.25 ug/ml [29]: 13.3%; Drug metabolism [30]: Metabolite_Detected; Activity [31]: Non-Toxic; Activity (SH-SY5Y [32]): Non-Toxic; Efficacy (Danio rerio [33]): 79%; Flu intensity [34]: 29.2; Activity (Danio rerio [35]): 66.7%; mortality at 25 ug/ml [36]: 100%; Flu intensity [37]: 32.6; viability at 1 µM (SH-SY5Y [38]): 68.1%
